Experimental data from patent publication US8912144B2, “Method for treating stroke via administration of NEP1-40 and inosine” (Children's Medical Center Corporation, priority 2003, dated 2014).

System: corticospinal neurons (CSNs/CSMNs)
Test: Laser-capture microdissection and Illumina microarray gene expression in corticospinal neurons contralateral to stroke
Type: in vivo, rat
Details: for Signal Intensity, Treatment after Stroke: Inosine: CSMNs contralateral to SMA infarct
Protocol: In a separate group of animals (n=20), layer V pyramidal cells of the sensorimotor cortex were retrogradely labeled by injecting Alexa-Fluor-488-conjugated cholera toxin B subunit (CTB; 300 U/μl in sterile saline) into the cervical spinal cord. For this, animals were anesthetized with a combination of ketamine and Domitor (medetomidine) and a laminectomy was performed at the cervical level of the spinal cord (C2-C4). CTB was stereotaxically delivered into four sites lateral to the corticospinal tract. Injections (1.3 μl) were spaced 1 mm apart on the rostro-caudal axis, and were made 0.5 mm to the left and right of the midline. After allowing two weeks for transport of the tracer, we performed either sham surgery with no treatment (n=6) or stroke surgery combined with saline (n=3) or inosine (n=4) treatment as described above. Seven days later, animals were decapitated under transient gas anesthesia, brains were removed and rinsed in cold RPMI medium, and a tissue block containing the sensorimotor cortex was dissected and placed in OCT Tissue Tek Medium (Sakura Finetek USA Inc., CA) on dry ice within five minutes of death. Ten μm sections were cut onto precleaned Gold Seal RITE-ON glass slides (Gold Seal Prod-ucts, Portsmouth, N.H.), placed on dry ice, and rapidly stored at −80° C.
Slide-mounted sections were thawed and dehydrated in RNAse-free ethanol gradients and xylene. Retro-gradely labeled, fluorescent cortical pyramidal cells in the undamaged hemisphere were individually captured using the Arcturus VERITAS system. ≧500 cells were collected from each animal and stored in Arcturus extraction buffer at −80° C. Total RNA was extracted from cells using the Micro-to-Midi TotalRNA Purification System (Invitrogen, Carlsbad Calif.) and double-amplified using the TargetAmp 2-Round Aminoallyl-aRNA Amplification kit 1.0 (Epicentre, Madison, Wis.). Amplified RNA was checked for average fragment length using the Agilent RNA 6000 Nano LabChip kit (Agilent Technologies, Santa Clara, Calif.) and then biotinylated and hybridized (1 μg) on Illumina RatRef-12 Expression BeadChip arrays (Illumina, San Diego Calif.), querying the expression of >22,000 RefSeq-curated rat transcripts. Results were obtained from a total of 15 samples representing 6 untreated controls, 4 animals with stroke treated with saline and 5 animals with stroke treated with inosine. Slides were processed and scanned with Illumina BeadStation platform according to the manufacturer protocol.
Raw data was analyzed using Bioconductor packages (www.bioconductor.org, (Gentleman et al., 2004)). Low level quality-control analysis was performed using inter-array Pearson correlation and clustering based on variance. Two arrays (1 saline and 1 inosine-treated) were outliers and were excluded from the analysis. Data was normalized using quantile normalization, and analysis of differential expression was performed using a linear model fitting (LIMMA package, (Smyth, 2005). Differentially expressed genes were classified according to gene ontology using Bioconductor packages and online tools (DAVID, http://david.abcc.ncifcrf.gov/). Pathway analysis was carried out using Ingenuity Pathway Analysis (Ingenuity Systems, www.ingenuity.com).

[1] = ILMN_161110, similar to myo-inositol 1-phosphate synthase A1

## OC[C@H]1O[C@@H](n2cnc3c(O)ncnc32)[C@H](O)[C@@H]1O [inosine]
ILMN_70426
  Fold-Induction Stroke, ino vs. cntrl, Rpl31: 0.90
ILMN_70426, inosine after stroke
  Signal Intensity, Rpl31: 831
[1]
  Fold-Induction Stroke, ino vs. cntrl: 2.90
  Signal Intensity Inosine: 3241
Ifitm3 ILMN_48088
  Fold-Induction Stroke, ino vs. cntrl: 2.71
  Signal Intensity Inosine: 2516
Igfbp2 ILMN_54332
  Fold-Induction Stroke, ino vs. cntrl: 3.97
  Signal Intensity Inosine: 3801
Ing4 ILMN_54994
  Fold-Induction Stroke, ino vs. cntrl: 1.01
  Signal Intensity Inosine: 1169
Irf3 ILMN_51700
  Fold-Induction Stroke, ino vs. cntrl: 2.92
  Signal Intensity Inosine: 12720
LOC291847 ILMN_62527
  Fold-Induction Stroke, ino vs. cntrl: 1.32
  Signal Intensity Inosine: 558
LOC294337 ILMN_68161
  Fold-Induction Stroke, ino vs. cntrl: 2.56
  Signal Intensity Inosine: 2622
LOC295941 ILMN_58921
  Fold-Induction Stroke, ino vs. cntrl: 1.07
  Signal Intensity Inosine: 3970
LOC300149 ILMN_48288
  Fold-Induction Stroke, ino vs. cntrl: 1.34
  Signal Intensity Inosine: 2789
LOC301122 ILMN_62401
  Fold-Induction Stroke, ino vs. cntrl: 1.22
  Signal Intensity Inosine: 925
LOC303702 ILMN_64738
  Fold-Induction Stroke, ino vs. cntrl: 1.72
  Signal Intensity Inosine: 899
LOC303790 ILMN_56510
  Fold-Induction Stroke, ino vs. cntrl: 1.45
  Signal Intensity Inosine: 2300
LOC304116 ILMN_63846
  Fold-Induction Stroke, ino vs. cntrl: 0.99
  Signal Intensity Inosine: 393
LOC305076 ILMN_60367
  Fold-Induction Stroke, ino vs. cntrl: 1.56
  Signal Intensity Inosine: 824
LOC305633 ILMN_51277
  Fold-Induction Stroke, ino vs. cntrl: 2.99
  Signal Intensity Inosine: 2047
LOC317579 ILMN_58258
  Fold-Induction Stroke, ino vs. cntrl: 1.52
  Signal Intensity Inosine: 733
LOC360627 ILMN_61895
  Fold-Induction Stroke, ino vs. cntrl: 2.62
  Signal Intensity Inosine: 1064
LOC360644 ILMN_48641
  Fold-Induction Stroke, ino vs. cntrl: 3.68
  Signal Intensity Inosine: 602
LOC361080 ILMN_61547
  Fold-Induction Stroke, ino vs. cntrl: 0.40
  Signal Intensity Inosine: 295
LOC362015 ILMN_62932
  Fold-Induction Stroke, ino vs. cntrl: 1.37
  Signal Intensity Inosine: 1285
LOC362304 ILMN_53204
  Fold-Induction Stroke, ino vs. cntrl: 1.34
  Signal Intensity Inosine: 5067
LOC362857 ILMN_64100
  Fold-Induction Stroke, ino vs. cntrl: 0.43
  Signal Intensity Inosine: 1081
LOC497739 ILMN_66205
  Fold-Induction Stroke, ino vs. cntrl: 1.65
  Signal Intensity Inosine: 4864
LOC497841 ILMN_51249
  Fold-Induction Stroke, ino vs. cntrl: 11.52
  Signal Intensity Inosine: 2841
LOC498185 ILMN_58236
  Fold-Induction Stroke, ino vs. cntrl: 2.76
  Signal Intensity Inosine: 804
LOC498276 ILMN_65617
  Fold-Induction Stroke, ino vs. cntrl: 2.56
  Signal Intensity Inosine: 3014
LOC498279 ILMN_65961
  Fold-Induction Stroke, ino vs. cntrl: 4.07
  Signal Intensity Inosine: 8892
LOC498335 ILMN_53325
  Fold-Induction Stroke, ino vs. cntrl: 25.26
  Signal Intensity Inosine: 3310
LOC498614 ILMN_54303
  Fold-Induction Stroke, ino vs. cntrl: 1.05
  Signal Intensity Inosine: 2373
LOC498957 ILMN_67281
  Fold-Induction Stroke, ino vs. cntrl: 1.28
  Signal Intensity Inosine: 1081
LOC499244 ILMN_49099
  Fold-Induction Stroke, ino vs. cntrl: 2.24
  Signal Intensity Inosine: 14824
LOC500226 ILMN_54711
  Fold-Induction Stroke, ino vs. cntrl: 2.10
  Signal Intensity Inosine: 7922
LOC500804 ILMN_61346
  Fold-Induction Stroke, ino vs. cntrl: 2.35
  Signal Intensity Inosine: 5507
Lap3 ILMN_57870
  Fold-Induction Stroke, ino vs. cntrl: 1.01
  Signal Intensity Inosine: 918
Lcpl ILMN_58058
  Fold-Induction Stroke, ino vs. cntrl: 2.76
  Signal Intensity Inosine: 1306
Lgals3bp ILMN_60037
  Fold-Induction Stroke, ino vs. cntrl: 3.00
  Signal Intensity Inosine: 629
Man2b1 ILMN_65999
  Fold-Induction Stroke, ino vs. cntrl: 2.64
  Signal Intensity Inosine: 1676
Map2k6 ILMN_53013
  Fold-Induction Stroke, ino vs. cntrl: 1.19
  Signal Intensity Inosine: 3981
Mt1a ILMN_53575
  Fold-Induction Stroke, ino vs. cntrl: 3.68
  Signal Intensity Inosine: 3267
Nfkbia ILMN_49934
  Fold-Induction Stroke, ino vs. cntrl: 2.69
  Signal Intensity Inosine: 3250
Oplah ILMN_65374
  Fold-Induction Stroke, ino vs. cntrl: 2.05
  Signal Intensity Inosine: 2440
Pfc ILMN_56164
  Fold-Induction Stroke, ino vs. cntrl: 2.02
  Signal Intensity Inosine: 1375
Pkn1 ILMN_63766
  Fold-Induction Stroke, ino vs. cntrl: 1.69
  Signal Intensity Inosine: 2365
Plcd1 ILMN_50502
  Fold-Induction Stroke, ino vs. cntrl: 1.90
  Signal Intensity Inosine: 1514
Plek ILMN_57609
  Fold-Induction Stroke, ino vs. cntrl: 2.99
  Signal Intensity Inosine: 1937
Pnck ILMN_66828
  Fold-Induction Stroke, ino vs. cntrl: 1.65
  Signal Intensity Inosine: 8946
Polrmt ILMN_59207
  Fold-Induction Stroke, ino vs. cntrl: 1.52
  Signal Intensity Inosine: 1219
Ppp1r14b ILMN_59774
  Fold-Induction Stroke, ino vs. cntrl: 2.26
  Signal Intensity Inosine: 2071
Ptpn6 ILMN_61314
  Fold-Induction Stroke, ino vs. cntrl: 3.52
  Signal Intensity Inosine: 957
Ptprr ILMN_55987
  Fold-Induction Stroke, ino vs. cntrl: 1.04
  Signal Intensity Inosine: 676
RGD1309326 ILMN_60781
  Fold-Induction Stroke, ino vs. cntrl: 1.43
  Signal Intensity Inosine: 2333
RT1-Da ILMN_59933
  Fold-Induction Stroke, ino vs. cntrl: 11.11
  Signal Intensity Inosine: 3072
Rbl2 ILMN_59080
  Fold-Induction Stroke, ino vs. cntrl: 1.30
  Signal Intensity Inosine: 1060
Rfx1 ILMN_50833
  Fold-Induction Stroke, ino vs. cntrl: 1.51
  Signal Intensity Inosine: 4995
Rhoj ILMN_58882
  Fold-Induction Stroke, ino vs. cntrl: 2.67
  Signal Intensity Inosine: 588
Rhot2 ILMN_62537
  Fold-Induction Stroke, ino vs. cntrl: 1.68
  Signal Intensity Inosine: 1112
Rnaset2 ILMN_55431
  Fold-Induction Stroke, ino vs. cntrl: 2.31
  Signal Intensity Inosine: 7227
Serpinb1a ILMN_57422
  Fold-Induction Stroke, ino vs. cntrl: 2.68
  Signal Intensity Inosine: 589
Serping1 ILMN_60046
  Fold-Induction Stroke, ino vs. cntrl: 3.19
  Signal Intensity Inosine: 1251
Sgpp1 ILMN_57304
  Fold-Induction Stroke, ino vs. cntrl: 0.44
  Signal Intensity Inosine: 316
Slc9a1 ILMN_53105
  Fold-Induction Stroke, ino vs. cntrl: 1.32
  Signal Intensity Inosine: 2100
Slc35b4 ILMN_68450
  Fold-Induction Stroke, ino vs. cntrl: 1.41
  Signal Intensity Inosine: 430
Smoc2 ILMN_60870
  Fold-Induction Stroke, ino vs. cntrl: 3.79
  Signal Intensity Inosine: 1123
Soc ILMN_57817
  Fold-Induction Stroke, ino vs. cntrl: 1.36
  Signal Intensity Inosine: 1341
Srebf1 ILMN_51834
  Fold-Induction Stroke, ino vs. cntrl: 1.47
  Signal Intensity Inosine: 1069
Tcirg1 ILMN_52949
  Fold-Induction Stroke, ino vs. cntrl: 2.81
  Signal Intensity Inosine: 2173
Timp1 ILMN_62559
  Fold-Induction Stroke, ino vs. cntrl: 3.57
  Signal Intensity Inosine: 2293
Tle2 ILMN_54011
  Fold-Induction Stroke, ino vs. cntrl: 3.03
  Signal Intensity Inosine: 2295
Tm6p1 ILMN_57902
  Fold-Induction Stroke, ino vs. cntrl: 1.99
  Signal Intensity Inosine: 1532
Trim39 ILMN_54591
  Fold-Induction Stroke, ino vs. cntrl: 1.35
  Signal Intensity Inosine: 1351
Unc93b ILMN_53114
  Fold-Induction Stroke, ino vs. cntrl: 2.10
  Signal Intensity Inosine: 600
Gene P2rxl1 (ILMN_68585)
  Signal Intensity, Treatment after Stroke: Inosine: 246
Gene Tm7sf2 (ILMN_58100)
  Signal Intensity, Treatment after Stroke: Inosine: 419
